Experimental data taken from ChEMBL document CHEMBL4622974, “Leveraging an Open Science Drug Discovery Model to Develop CNS-Penetrant ALK2 Inhibitors for the Treatment of Diffuse Intrinsic Pontine Glioma” (J Med Chem, 2020).
Calls of active or inactive are those of the source. The rule behind the calls is not given here.

How the values were obtained:
[1] = target: T1, Activin receptor type-1B (Homo sapiens, UniProt P36896); assay: Inhibition of human ALK4 using casein as substrate in presence of [gamma-33P]-ATP by radiometric hotspot assay; format: ADME
T1 sequence (P36896 whole entry): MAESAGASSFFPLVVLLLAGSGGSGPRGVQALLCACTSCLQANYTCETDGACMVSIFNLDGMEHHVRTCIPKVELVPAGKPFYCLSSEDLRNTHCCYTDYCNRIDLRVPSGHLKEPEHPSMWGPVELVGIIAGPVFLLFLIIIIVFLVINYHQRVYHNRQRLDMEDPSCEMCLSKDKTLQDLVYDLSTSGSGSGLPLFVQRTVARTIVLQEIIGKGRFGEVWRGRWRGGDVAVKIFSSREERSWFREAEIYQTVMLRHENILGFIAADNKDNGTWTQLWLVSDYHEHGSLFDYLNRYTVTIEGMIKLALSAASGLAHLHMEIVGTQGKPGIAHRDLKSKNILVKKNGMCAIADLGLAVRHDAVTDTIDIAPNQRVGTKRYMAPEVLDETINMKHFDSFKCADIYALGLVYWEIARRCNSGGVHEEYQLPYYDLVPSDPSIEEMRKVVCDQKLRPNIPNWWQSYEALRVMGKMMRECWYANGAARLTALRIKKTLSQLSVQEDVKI

[2] = target: Tyrosine-protein kinase ABL1 (Homo sapiens, UniProt P00519); assay: Inhibition of ABL1 (unknown origin)
[3] = target: Protein-tyrosine kinase 6 (Homo sapiens, UniProt Q13882); assay: Inhibition of BRK (unknown origin)
[4] = target: Epithelial discoidin domain-containing receptor 1 (Homo sapiens, UniProt Q08345); assay: Inhibition of DDR1 (unknown origin)
[5] = target: Misshapen-like kinase 1 (Homo sapiens, UniProt Q8N4C8); assay: Inhibition of MINK (unknown origin)
[6] = target: TRAF2 and NCK-interacting protein kinase (Homo sapiens, UniProt Q9UKE5); assay: Inhibition of TNIK (unknown origin)
[7] = target: Mitogen-activated protein kinase kinase kinase 20 (Homo sapiens, UniProt Q9NYL2); assay: Inhibition of ZAK (unknown origin)
[8] = target: Voltage-gated inwardly rectifying potassium channel KCNH2 (Homo sapiens, UniProt Q12809); assay: Inhibition of human ERG expressed in HEK293 cells after 5 mins by IonWorks barracuda patch clamp method; format: cell-based
[9] = Stability in CD1 mouse liver microsomes assessed as compound remaining at 1 uM incubated for 60 mins by LC/MS analysis; format: ADME, Microsome; settings: read-out: Stability
[10] = Stability in human liver microsomes assessed as compound remaining at 1 uM incubated for 60 mins by LC/MS analysis; format: ADME, Microsome; settings: read-out: Stability
[11] = Protein binding in human plasma at 5 uM after 4 hrs by rapid equilibrium dialysis; format: ADME, cell-free; settings: read-out: PPB (converted)
[12] = Protein binding in human plasma assessed as free fraction at 5 uM after 4 hrs by rapid equilibrium dialysis; format: ADME, cell-free
[13] = Half life in CD1 mouse liver microsomes at 1 uM incubated for 60 mins by LC/MS analysis; format: ADME, Microsome
[14] = Half life in human liver microsomes at 1 uM incubated for 60 mins by LC/MS analysis; format: ADME, Microsome
[15] = Clearance in CB17 SCID mouse at 2 mg/kg, iv after 0.25 to 24 hrs by LC/MS/MS method; format: ADME, organism-based; settings: in vivo
[16] = Clearance in SD rat at 2 mg/kg, iv after 0.25 to 24 hrs by LC/MS/MS method; format: ADME, organism-based; settings: in vivo
[17] = Volume of distribution at steady state in CB17 SCID mouse at 2 mg/kg, iv after 0.25 to 24 hrs by LC/MS/MS method; format: ADME, organism-based; settings: in vivo, read-out: Vdss
[18] = Volume of distribution at steady state in SD rat at 2 mg/kg, iv after 0.25 to 24 hrs by LC/MS/MS method; format: ADME, organism-based; settings: in vivo, read-out: Vdss
[19] = Half life in CB17 SCID mouse at 10 mg/kg, po after 0.25 to 24 hrs by LC/MS/MS method; format: ADME, organism-based; settings: in vivo
[20] = Half life in SD rat at 10 mg/kg, po after 0.25 to 24 hrs by LC/MS/MS method; format: ADME, organism-based; settings: in vivo
[21] = Cmax in CB17 SCID mouse at 10 mg/kg, po after 0.25 to 24 hrs by LC/MS/MS method; format: ADME, organism-based; set-up: dose 10 mg/kg, route oral; settings: in vivo
[22] = Cmax in SD rat at 10 mg/kg, po after 0.25 to 24 hrs by LC/MS/MS method; format: ADME, organism-based; set-up: dose 10 mg/kg, route oral; settings: in vivo
[23] = AUCinfinity in CB17 SCID mouse at 10 mg/kg, po after 0.25 to 24 hrs by LC/MS/MS method; format: ADME, organism-based; set-up: dose 10 mg/kg, time infinity, route oral; settings: in vivo
[24] = AUCinfinity in SD rat at 10 mg/kg, po after 0.25 to 24 hrs by LC/MS/MS method; format: ADME, organism-based; set-up: dose 10 mg/kg, route oral, time infinity; settings: in vivo
[25] = Oral bioavailability in CB17 SCID mouse at 10 mg/kg after 0.25 to 24 hrs by LC/MS/MS method; format: ADME, organism-based; settings: in vivo
[26] = Oral bioavailability in SD rat at 10 mg/kg after 0.25 to 24 hrs by LC/MS/MS method; format: ADME, organism-based; settings: in vivo
[27] = Ratio of drug level in brain to plasma in CB17 SCID mouse at 100 mg/kg, po measured at 4 h; format: ADME, organism-based; settings: brain and plasma, read-out: BPR
[28] = Toxicity in CB17 SCID mouse assessed as induction of adverse effect at 2 mg/kg, iv; format: organism-based; settings: in vivo
[29] = Toxicity in CB17 SCID mouse assessed as induction of adverse effect at 10 mg/kg, po; format: organism-based; settings: in vivo
[30] = Toxicity in CB17 SCID mouse assessed as behavioural abnormalities at 100 mg/kg, po measured after 24 hrs; format: organism-based; settings: in vivo
[31] = Toxicity in CB17 SCID mouse assessed as physical abnormalities at 100 mg/kg, po measured after 24 hrs; format: organism-based; settings: in vivo
[32] = Growth inhibition of human SU-DIPG-XXI cells harboring ACVR1 G328W mutant; format: functional
[33] = Growth inhibition of human HSJD-DIPG-007 cells harboring ACVR1 R206H mutant; format: functional
[34] = target: Bone morphogenetic protein receptor type-1B (Homo sapiens, UniProt O00238); assay: Inhibition of human ALK6 using casein as substrate in presence of [gamma-33P]-ATP by radiometric hotspot assay
[35] = target: Alpha-2A adrenergic receptor (Homo sapiens, UniProt P08913); assay: Inhibition of recombinant human adrenergic alpha2A receptor at 10 uM incubated for 60 mins by scintillation counting method relative to control
[36] = Protein binding in CD-1 mouse brain at 1 mg/kg, iv measured at 2 hrs; format: ADME, organism-based; settings: read-out: PB (converted)
[37] = Toxicity in C57BL/6 mouse assessed as mouse death at 25 mg/kg, po QD administered for 5 days measured after 24 hrs; format: organism-based; settings: in vivo

Epithelial discoidin domain-containing receptor 1, sequence (Q08345 whole entry, the tested form may be a part): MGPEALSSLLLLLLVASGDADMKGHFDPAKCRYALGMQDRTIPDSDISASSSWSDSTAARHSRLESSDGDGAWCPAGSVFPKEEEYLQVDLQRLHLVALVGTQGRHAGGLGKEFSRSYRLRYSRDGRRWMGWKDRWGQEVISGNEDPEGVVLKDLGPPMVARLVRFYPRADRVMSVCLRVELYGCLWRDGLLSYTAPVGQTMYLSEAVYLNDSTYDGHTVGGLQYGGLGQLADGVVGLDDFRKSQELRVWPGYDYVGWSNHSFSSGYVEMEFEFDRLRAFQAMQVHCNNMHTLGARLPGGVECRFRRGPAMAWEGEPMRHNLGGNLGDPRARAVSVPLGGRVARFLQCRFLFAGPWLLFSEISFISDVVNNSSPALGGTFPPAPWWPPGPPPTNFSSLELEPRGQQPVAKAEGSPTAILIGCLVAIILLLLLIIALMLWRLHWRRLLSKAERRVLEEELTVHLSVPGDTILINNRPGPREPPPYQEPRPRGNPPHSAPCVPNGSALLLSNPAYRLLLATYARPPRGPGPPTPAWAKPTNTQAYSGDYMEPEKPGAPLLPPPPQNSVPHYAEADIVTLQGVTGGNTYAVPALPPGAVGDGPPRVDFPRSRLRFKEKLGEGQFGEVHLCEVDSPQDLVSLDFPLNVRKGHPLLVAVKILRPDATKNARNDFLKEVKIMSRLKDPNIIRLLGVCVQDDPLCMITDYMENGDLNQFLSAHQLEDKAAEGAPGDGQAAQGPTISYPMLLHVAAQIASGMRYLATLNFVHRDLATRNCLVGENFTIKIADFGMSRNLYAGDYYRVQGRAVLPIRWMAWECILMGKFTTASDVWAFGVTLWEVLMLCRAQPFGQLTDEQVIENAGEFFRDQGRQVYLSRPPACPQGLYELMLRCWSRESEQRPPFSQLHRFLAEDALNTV
Tyrosine-protein kinase ABL1, sequence (P00519 whole entry): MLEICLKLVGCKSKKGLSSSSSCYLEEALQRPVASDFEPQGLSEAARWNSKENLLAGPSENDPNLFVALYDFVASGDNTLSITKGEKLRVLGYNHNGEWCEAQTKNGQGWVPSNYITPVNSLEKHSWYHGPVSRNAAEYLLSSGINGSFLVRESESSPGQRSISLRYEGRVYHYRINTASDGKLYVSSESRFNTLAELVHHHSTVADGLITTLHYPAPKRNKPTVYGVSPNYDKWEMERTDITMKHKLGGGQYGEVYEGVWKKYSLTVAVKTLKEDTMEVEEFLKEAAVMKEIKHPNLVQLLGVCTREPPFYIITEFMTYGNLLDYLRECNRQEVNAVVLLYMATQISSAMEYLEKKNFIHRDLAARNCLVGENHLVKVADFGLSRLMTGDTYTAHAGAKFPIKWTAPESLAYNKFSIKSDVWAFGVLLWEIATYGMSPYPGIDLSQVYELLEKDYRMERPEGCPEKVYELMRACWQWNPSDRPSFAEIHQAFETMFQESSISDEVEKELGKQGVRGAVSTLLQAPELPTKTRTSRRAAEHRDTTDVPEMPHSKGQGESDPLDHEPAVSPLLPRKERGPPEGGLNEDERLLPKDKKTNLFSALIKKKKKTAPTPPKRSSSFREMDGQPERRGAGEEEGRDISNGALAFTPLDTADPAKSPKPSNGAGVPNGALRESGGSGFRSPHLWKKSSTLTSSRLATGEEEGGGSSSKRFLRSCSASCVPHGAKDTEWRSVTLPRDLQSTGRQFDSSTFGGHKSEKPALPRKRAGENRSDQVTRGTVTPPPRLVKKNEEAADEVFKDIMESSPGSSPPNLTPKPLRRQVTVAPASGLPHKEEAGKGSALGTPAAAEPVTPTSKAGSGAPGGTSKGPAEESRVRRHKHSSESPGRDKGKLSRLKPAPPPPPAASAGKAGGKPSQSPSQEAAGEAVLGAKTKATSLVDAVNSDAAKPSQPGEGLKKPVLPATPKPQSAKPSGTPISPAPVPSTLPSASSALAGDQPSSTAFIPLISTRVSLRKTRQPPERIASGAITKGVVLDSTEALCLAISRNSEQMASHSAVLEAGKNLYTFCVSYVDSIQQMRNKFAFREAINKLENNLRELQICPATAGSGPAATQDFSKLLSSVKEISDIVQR
Voltage-gated inwardly rectifying potassium channel KCNH2, sequence (Q12809 whole entry): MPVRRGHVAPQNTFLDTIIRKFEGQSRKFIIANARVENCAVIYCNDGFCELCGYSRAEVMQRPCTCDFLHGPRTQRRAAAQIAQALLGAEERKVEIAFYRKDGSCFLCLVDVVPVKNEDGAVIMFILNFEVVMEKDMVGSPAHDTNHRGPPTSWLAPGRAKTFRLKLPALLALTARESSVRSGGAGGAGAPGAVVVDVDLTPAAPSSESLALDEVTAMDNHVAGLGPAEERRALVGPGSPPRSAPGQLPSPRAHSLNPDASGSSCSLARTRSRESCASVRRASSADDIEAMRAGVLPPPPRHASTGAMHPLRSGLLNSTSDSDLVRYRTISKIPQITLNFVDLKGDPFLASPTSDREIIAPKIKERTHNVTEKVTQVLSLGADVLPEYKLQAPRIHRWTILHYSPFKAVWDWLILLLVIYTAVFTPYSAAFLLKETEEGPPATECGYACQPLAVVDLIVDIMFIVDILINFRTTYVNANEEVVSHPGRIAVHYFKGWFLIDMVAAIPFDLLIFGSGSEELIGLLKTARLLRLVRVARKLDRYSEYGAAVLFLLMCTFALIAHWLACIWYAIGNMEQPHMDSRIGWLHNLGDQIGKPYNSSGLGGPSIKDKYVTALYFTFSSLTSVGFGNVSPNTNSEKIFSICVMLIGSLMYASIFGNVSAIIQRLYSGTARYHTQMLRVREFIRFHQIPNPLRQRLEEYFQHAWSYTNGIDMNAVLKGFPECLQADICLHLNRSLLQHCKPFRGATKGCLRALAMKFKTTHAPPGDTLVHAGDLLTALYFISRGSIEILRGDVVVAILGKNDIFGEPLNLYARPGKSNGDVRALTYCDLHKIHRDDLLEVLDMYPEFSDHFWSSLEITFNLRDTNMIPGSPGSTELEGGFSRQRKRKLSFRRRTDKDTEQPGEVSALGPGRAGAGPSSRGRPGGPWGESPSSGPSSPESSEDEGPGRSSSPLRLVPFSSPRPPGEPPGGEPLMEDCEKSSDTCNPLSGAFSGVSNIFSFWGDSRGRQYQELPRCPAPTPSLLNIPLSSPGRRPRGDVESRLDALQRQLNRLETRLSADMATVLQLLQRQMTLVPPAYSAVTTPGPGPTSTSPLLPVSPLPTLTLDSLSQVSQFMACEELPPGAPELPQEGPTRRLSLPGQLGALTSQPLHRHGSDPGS
Alpha-2A adrenergic receptor, sequence (P08913 whole entry): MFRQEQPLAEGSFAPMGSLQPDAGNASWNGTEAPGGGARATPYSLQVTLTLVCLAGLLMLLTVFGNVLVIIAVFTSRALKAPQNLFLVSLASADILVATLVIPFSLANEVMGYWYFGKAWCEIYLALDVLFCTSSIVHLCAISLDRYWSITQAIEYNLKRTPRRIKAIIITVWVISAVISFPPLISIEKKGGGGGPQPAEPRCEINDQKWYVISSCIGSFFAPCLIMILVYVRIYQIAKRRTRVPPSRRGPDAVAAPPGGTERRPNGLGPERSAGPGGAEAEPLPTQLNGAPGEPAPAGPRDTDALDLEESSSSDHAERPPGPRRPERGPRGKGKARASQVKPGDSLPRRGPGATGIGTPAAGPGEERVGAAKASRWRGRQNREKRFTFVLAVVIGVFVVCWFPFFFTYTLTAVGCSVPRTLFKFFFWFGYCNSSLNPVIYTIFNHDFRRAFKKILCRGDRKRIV
Bone morphogenetic protein receptor type-1B, sequence (O00238 whole entry): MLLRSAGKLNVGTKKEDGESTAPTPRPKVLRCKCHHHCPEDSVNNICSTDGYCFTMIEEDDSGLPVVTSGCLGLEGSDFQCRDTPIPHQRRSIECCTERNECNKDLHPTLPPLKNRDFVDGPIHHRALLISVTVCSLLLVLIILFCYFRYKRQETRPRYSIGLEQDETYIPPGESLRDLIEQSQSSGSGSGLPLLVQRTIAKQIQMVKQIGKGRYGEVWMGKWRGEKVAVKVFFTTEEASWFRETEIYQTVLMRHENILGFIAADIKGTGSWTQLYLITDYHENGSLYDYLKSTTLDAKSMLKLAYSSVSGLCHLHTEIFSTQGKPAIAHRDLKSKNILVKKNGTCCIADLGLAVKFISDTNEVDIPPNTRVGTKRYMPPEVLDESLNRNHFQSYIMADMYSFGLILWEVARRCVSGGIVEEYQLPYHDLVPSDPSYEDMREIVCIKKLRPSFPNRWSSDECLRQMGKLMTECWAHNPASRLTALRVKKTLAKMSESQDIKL

Row | SMILES | IC50 [1] | remaining at 1 h, 1 µM [9] | remaining at 1 h, 1 µM [10] | fraction unbound at 4 h, 5 µM [11] | fraction unbound at 4 h, 5 µM [12] | half-life at 1 µM [13] | half-life at 1 µM [14] | clearance [15] | clearance [16] | Vd [17] | Vd [18] | half-life [19] | half-life [20] | Cmax [21] | Cmax [22] | AUC(0-inf) [23] | AUC(0-inf) [24] | bioavailability [25] | bioavailability [26] | Kp at 4 h [27] | further results
1 | COc1cc(-c2cncc(-c3ccc(C4CCN(C)CC4)cc3)c2C)cc(OC)c1OC | > 2000 nM | 55.5% | 71.2% | 0.05 | 0.05 | > 1 h | > 1 h | 8.9 mL/min/kg | 15.1 mL/min/kg | 2.44 L/kg | 4.33 L/kg | 3.67 h | 3.9 h | 4.74 µM | 1.16 µM | 32.4 µM·h | 12.9 µM·h | 74% | 50% | 1.55 | inhibition [2]: Active; inhibition [3]: Active; inhibition [4]: Active; inhibition [5]: Active; inhibition [6]: Active; inhibition [7]: Active; IC50 [8]: 4800 nM; Activity [28]: Non-Toxic; Activity [29]: Non-Toxic; Activity [30]: Non-Toxic; Activity [31]: Non-Toxic; GI50 [32]: 214 nM; GI50 [33]: 36 nM
2 | COc1cc(-c2cncc(-c3ccc(N4CCNCC4)cc3)c2C)cc(OC)c1OC | 1340 nM | 64.6% | 71.4% | 0.057 | 0.057 | > 1 h | > 1 h | 12.7 mL/min/kg | 22.1 mL/min/kg | 2.05 L/kg | 5.22 L/kg | 3.11 h | 3.58 h | 6.16 µM | 1.28 µM | 51.7 µM·h | 17.4 µM·h | 100% | 96% | 1.1 | IC50 [34]: 68 nM; IC50 [2]: 336 to 924 nM; IC50 [3]: 336 to 924 nM; IC50 [4]: 41 nM; IC50 [5]: 336 to 924 nM; IC50 [6]: 96 nM; IC50 [7]: 336 to 924 nM; inhibition at 1 h, 10 µM [35]: 90%; fraction unbound at 2 h [36]: 0.03; Activity [28]: Non-Toxic; Activity [29]: Non-Toxic; Activity [30]: Non-Toxic; Activity [31]: Non-Toxic; Activity [37]: Non-Toxic; GI50 [32]: 52 nM; GI50 [33]: 130 nM
